This experiment has as its system P388 leukemia ip, CD2F1 mice, survival T/C. The experiment in a line: NCI In Vivo Anticancer Drug Screen. Data for tumor model P388 Leukemia (intraperitoneal) in CD2F1 (CDF1) mice. To be noted: endpoint: median survival time, higher = longer survival. In short, it runs like this:
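Mice carrying the transplanted tumor received test compound or vehicle. Survival was recorded in each group, and the value is the treated-group measurement divided by that of the vehicle-treated control group.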

The mark [1] stands for this setting: dose: 50.0 mg/kg/injection, schedule: Q01DX009 (ip), vehicle: saline with Tween-80.
Where [2] appears, read: dose: 100.0 mg/kg/injection, schedule: Q01DX009 (ip), vehicle: saline with Tween-80.
The mark [3] stands for this setting: dose: 200.0 mg/kg/injection, schedule: Q01DX009 (ip), vehicle: saline with Tween-80.
[4] abbreviates: dose: 200.0 mg/kg/injection, schedule: Q04DX003 (ip), vehicle: saline with Tween-80.
[5] abbreviates: dose: 50.0 mg/kg/injection, schedule: Q01DX005 (ip), vehicle: saline with Tween-80.
The mark [6] stands for this setting: dose: 200.0 mg/kg/injection, schedule: Q01DX005 (ip), vehicle: saline with Tween-80.
The mark [7] stands for this setting: dose: 12.5 mg/kg/injection, schedule: Q01DX005 (ip), vehicle: saline with Tween-80.
Setting [8] is: dose: 25.0 mg/kg/injection, schedule: Q01DX005 (ip), vehicle: saline with Tween-80.

19 molecules from PubChem BioAssay AID330 (DTP/NCI, 2004) can be followed below.

Several values for one entry are separate records, joined by “and”; a condition that tells them apart may be missing. Identical values can stand only once. Toxic doses and inconclusive results are not listed.

As to `O=C1NC(=O)C(=Cc2cc3c(cc2Br)OCO3)C(=O)N1`, the T/C reads like this: (dose: 25.0 mg/kg/injection, schedule: Q01DX009 (ip), vehicle: Klucel (hydroxypropylcellulose) (HPC)) 101 % of control; (dose: 50.0 mg/kg/injection, schedule: Q01DX009 (ip), vehicle: Klucel (hydroxypropylcellulose) (HPC)) 101 % of control; under setting [1], 114 % of control; (dose: 100.0 mg/kg/injection, schedule: Q01DX009 (ip), vehicle: Klucel (hydroxypropylcellulose) (HPC)) 117 % of control; under setting [2], 110 % of control and 124 % of control; (dose: 166.0 mg/kg/injection, schedule: Q01DX009 (ip), vehicle: saline with Tween-80) 117 % of control. For the same molecule, the T/C was 113 % of control (dose: 200.0 mg/kg/injection, schedule: Q01DX009 (ip), vehicle: Klucel (hydroxypropylcellulose) (HPC)) and 96 % of control under setting [3].
For `CCOC(C)(c1ccc(Cl)cc1)C1CCNCC1` (stereo not drawn), the T/C reads like this: under setting [1], 101 % of control; under setting [2], 119 % of control.
For the molecule `CC(=O)Oc1ccc[nH]c1=O`, the T/C runs as follows: under setting [2], 104 % of control; (dose: 100.0 mg/kg/injection, schedule: Q04DX003 (ip), vehicle: saline with Tween-80) 113 % of control; under setting [3], 118 % of control; under setting [4], 104 % of control; (dose: 300.0 mg/kg/injection, schedule: Q01DX009 (ip), vehicle: saline) 155 % of control; (dose: 400.0 mg/kg/injection, schedule: Q01DX009 (ip), vehicle: saline) 158 % of control. Further, the T/C is, setting by setting: (dose: 400.0 mg/kg/injection, schedule: Q04DX003 (ip), vehicle: saline with Tween-80) 109 % of control; (dose: 500.0 mg/kg/injection, schedule: Q01DX009 (ip), vehicle: saline) 87 % of control and 91 % of control; (dose: 600.0 mg/kg/injection, schedule: Q01DX009 (ip), vehicle: saline sonified) 115 % of control; (dose: 600.0 mg/kg/injection, schedule: Q01DX009 (ip), vehicle: saline with Tween-80) 172 % of control; (dose: 600.0 mg/kg/injection, schedule: Q01DX009 (ip), vehicle: saline) 110 % of control.
On to `C=Cn1c([N+](=O)[O-])cnc1/C=C/c1ccc(C(=O)OCCN2CCCCC2)cc1`, for which the T/C (dose: 100.0 mg/kg/injection, schedule: Q04DX002 (ip), vehicle: saline with Tween-80) is 90 % of control; the T/C (dose: 100.0 mg/kg/injection, schedule: Q04DX003 (ip), vehicle: Klucel (hydroxypropylcellulose) (HPC)) is 105 % of control; the T/C (dose: 200.0 mg/kg/injection, schedule: Q04DX002 (ip), vehicle: saline with Tween-80) was 90 % of control; the T/C (dose: 200.0 mg/kg/injection, schedule: Q04DX003 (ip), vehicle: Klucel (hydroxypropylcellulose) (HPC)) is 102 % of control; the T/C (dose: 400.0 mg/kg/injection, schedule: Q04DX002 (ip), vehicle: saline with Tween-80) was 90 % of control; the T/C (dose: 400.0 mg/kg/injection, schedule: Q04DX003 (ip), vehicle: Klucel (hydroxypropylcellulose) (HPC)) is 102 % of control.
For `O=C(c1ccccc1)C(CN1CCCC1)CN1CCCC1`, the T/C is, setting by setting: (dose: 12.5 mg/kg/injection, schedule: Q01DX005 (ip), vehicle: saline) 100 % of control; (dose: 25.0 mg/kg/injection, schedule: Q01DX005 (ip), vehicle: saline) 97 % of control; (dose: 50.0 mg/kg/injection, schedule: Q01DX005 (ip), vehicle: saline) 100 % of control and 102 % of control.
For the molecule `C=CC(C)(C)c1c(OC)cc(-c2ccccc2)oc1=O`, the T/C runs as follows: (dose: 8.0 mg/kg/injection, schedule: Q01DX005 (ip), vehicle: Klucel + Tween-80) 103 % of control; (dose: 16.0 mg/kg/injection, schedule: Q01DX005 (ip), vehicle: Klucel + Tween-80) 103 % of control; (dose: 32.0 mg/kg/injection, schedule: Q01DX005 (ip), vehicle: Klucel + Tween-80) 109 % of control; (dose: 64.0 mg/kg/injection, schedule: Q01DX005 (ip), vehicle: Klucel + Tween-80) 107 % of control.
`CNC(=O)SCCC(=O)OC`: the T/C is, setting by setting: under setting [5], 98 % of control; (dose: 100.0 mg/kg/injection, schedule: Q01DX005 (ip), vehicle: saline with Tween-80) 100 % of control; under setting [6], 100 % of control.
On to `C=CCCOC1CCCCO1` (stereo not drawn), for which the T/C is 104 % of control (dose: 50.0 mg/kg/injection, schedule: Q01DX009 (ip), vehicle: other); 104 % of control (dose: 100.0 mg/kg/injection, schedule: Q01DX009 (ip), vehicle: other); 100 % of control (dose: 200.0 mg/kg/injection, schedule: Q01DX009 (ip), vehicle: other).
For the molecule `COc1c(C)c(O)c2c(c1O)/C(=C/N=NC(N)=S)C(Cl)=N2`, the T/C (dose: 100.0 mg/kg/injection, schedule: Q01DX001 (ip), vehicle: saline with Tween-80) was 103 % of control; the T/C (dose: 200.0 mg/kg/injection, schedule: Q01DX001 (ip), vehicle: saline with Tween-80) is 103 % of control; the T/C (dose: 400.0 mg/kg/injection, schedule: Q01DX001 (ip), vehicle: saline with Tween-80) was 96 % of control.
As to `CC(=O)N1CCC23c4ccccc4N(C)C2CC(=O)CC13` (stereo not drawn), the T/C is, setting by setting: (dose: 8.75 mg/kg/injection, schedule: Q01DX005 (ip), vehicle: Klucel (hydroxypropylcellulose) (HPC)) 97 % of control; (dose: 17.5 mg/kg/injection, schedule: Q01DX005 (ip), vehicle: Klucel (hydroxypropylcellulose) (HPC)) 98 % of control; (dose: 35.0 mg/kg/injection, schedule: Q01DX005 (ip), vehicle: Klucel (hydroxypropylcellulose) (HPC)) 103 % of control.
Regarding `COC(=O)/C=C(\C)Oc1cc(Cl)c(Cl)cc1Cl`, the T/C is, setting by setting: under setting [2], 91 % of control; (dose: 400.0 mg/kg/injection, schedule: Q01DX009 (ip), vehicle: saline with Tween-80) 87 % of control.
As to `COC(=O)C1C2CC3c4[nH]c5cc(OC)ccc5c4CCN3CC2CC(O)C1OC` (stereo not drawn), the T/C runs as follows: (dose: 50.0 mg/kg/injection, schedule: Q01DX005 (ip), vehicle: Klucel (hydroxypropylcellulose) (HPC)) 97 % of control; (dose: 100.0 mg/kg/injection, schedule: Q01DX005 (ip), vehicle: Klucel (hydroxypropylcellulose) (HPC)) 97 % of control.
For the molecule `COC(=O)C(OC)(OC)C(O)c1ccccc1` (stereo not drawn), the T/C by setting is: (dose: 60.0 mg/kg/injection, schedule: Q01DX005 (ip), vehicle: saline) 100 % of control; (dose: 120.0 mg/kg/injection, schedule: Q01DX005 (ip), vehicle: saline) 106 % of control; (dose: 240.0 mg/kg/injection, schedule: Q01DX005 (ip), vehicle: saline) 113 % of control.
Turning to `CC1(C)C2CCC1(C)C(N1C(=O)N=NC1=O)C2` (stereo not drawn), the T/C is, setting by setting: under setting [7], 100 % of control; under setting [8], 103 % of control; under setting [5], 103 % of control and 91 % of control; under setting [6], 104 % of control.
With `CSCC(=O)O`, the T/C was 106 % of control (dose: 50.0 mg/kg/injection, schedule: Q01DX009 (ip), vehicle: saline); 106 % of control (dose: 100.0 mg/kg/injection, schedule: Q01DX009 (ip), vehicle: saline); 97 % of control (dose: 200.0 mg/kg/injection, schedule: Q01DX009 (ip), vehicle: saline).
For the molecule `Cc1cc(NC(=O)CCc2ccc(N3C(N)=NC(N)=NC3(C)C)cc2)ccc1S(=O)(=O)F`, the T/C was 122 % of control (dose: 1.5 mg/kg/injection, schedule: Q01DX009 (ip), vehicle: saline sonified); 150 % of control (dose: 25.0 mg/kg/injection, schedule: Q01DX009 (ip), vehicle: saline with Tween-80); 113 % of control under setting [2].
As to `CCCCOc1cc2c(cc1C(C)c1ccccc1)OCO2` (stereo not drawn), the T/C is 94 % of control under setting [7]; 91 % of control under setting [8]; 101 % of control and 90 % of control under setting [5].
For the molecule `Nc1nc(N)c2nc(CNc3ccc(C(=O)NC(CC(=O)O)C(=O)O)cc3)cnc2n1` (stereo not drawn), the T/C (dose: 12.5 mg/kg/injection, schedule: Q01DX009 (ip), vehicle: saline with Tween-80) is 150 % of control; the T/C under setting [1] is 95 % of control; the T/C (dose: 66.0 mg/kg/injection, schedule: Q04DX003 (ip), vehicle: saline with Tween-80) was 112 % of control; the T/C under setting [4] is 90 % of control.
Turning to `C(=N\Nc1nn[nH]n1)/c1ccccc1`, the T/C (dose: 50.0 mg/kg/injection, schedule: Q01DX009 (ip), vehicle: suspension in saline) was 98 % of control; the T/C (dose: 100.0 mg/kg/injection, schedule: Q01DX009 (ip), vehicle: suspension in saline) was 97 % of control; the T/C (dose: 200.0 mg/kg/injection, schedule: Q01DX009 (ip), vehicle: suspension in saline) is 104 % of control.
